Assay results published in the supplement of paper PMC12076712.

Experiments:
Test in all cases: pIC50, kinobeads binding competition
Conditions in all cases: cell material: Jurkat lysate
HIPK1 = HIPK1 (UniProt Q86Z02)
LIMK2 = LIMK2 (UniProt P53671)
NEK1 = target: T1, NEK1 (UniProt Q96PY6)
T1 sequence (whole entry): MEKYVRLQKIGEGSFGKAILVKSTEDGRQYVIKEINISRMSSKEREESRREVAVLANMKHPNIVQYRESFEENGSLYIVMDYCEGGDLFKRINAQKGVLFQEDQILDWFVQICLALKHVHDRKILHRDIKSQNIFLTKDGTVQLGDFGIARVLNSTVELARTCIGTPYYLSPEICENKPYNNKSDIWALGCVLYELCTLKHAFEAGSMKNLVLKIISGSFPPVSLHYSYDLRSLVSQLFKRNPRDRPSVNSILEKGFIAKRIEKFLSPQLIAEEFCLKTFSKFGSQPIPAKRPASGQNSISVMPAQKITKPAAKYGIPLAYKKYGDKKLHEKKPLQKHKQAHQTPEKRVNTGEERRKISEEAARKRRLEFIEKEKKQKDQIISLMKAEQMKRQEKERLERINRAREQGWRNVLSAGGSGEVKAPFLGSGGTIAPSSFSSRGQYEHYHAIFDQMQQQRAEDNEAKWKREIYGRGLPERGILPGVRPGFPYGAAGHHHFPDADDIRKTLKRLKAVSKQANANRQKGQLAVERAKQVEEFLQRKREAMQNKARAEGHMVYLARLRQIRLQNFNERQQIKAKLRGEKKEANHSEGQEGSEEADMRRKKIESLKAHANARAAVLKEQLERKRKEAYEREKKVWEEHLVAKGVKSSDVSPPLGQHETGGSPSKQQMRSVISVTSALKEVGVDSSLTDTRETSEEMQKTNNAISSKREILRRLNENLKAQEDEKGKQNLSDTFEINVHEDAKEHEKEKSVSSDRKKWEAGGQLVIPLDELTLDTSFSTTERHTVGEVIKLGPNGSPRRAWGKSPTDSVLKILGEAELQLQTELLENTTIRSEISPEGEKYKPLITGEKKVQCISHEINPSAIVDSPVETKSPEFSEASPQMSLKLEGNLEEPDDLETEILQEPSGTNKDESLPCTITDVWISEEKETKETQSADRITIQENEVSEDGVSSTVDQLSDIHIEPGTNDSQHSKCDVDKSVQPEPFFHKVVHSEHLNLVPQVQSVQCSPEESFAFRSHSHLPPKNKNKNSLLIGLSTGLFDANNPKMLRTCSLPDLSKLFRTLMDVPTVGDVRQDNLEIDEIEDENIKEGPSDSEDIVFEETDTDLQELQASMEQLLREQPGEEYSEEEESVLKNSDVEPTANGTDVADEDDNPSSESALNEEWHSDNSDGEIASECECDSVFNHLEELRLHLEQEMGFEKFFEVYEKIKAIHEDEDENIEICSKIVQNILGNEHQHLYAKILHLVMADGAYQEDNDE

UniProt Q13163 = target: T2, UniProt Q13163
T2 sequence (whole entry): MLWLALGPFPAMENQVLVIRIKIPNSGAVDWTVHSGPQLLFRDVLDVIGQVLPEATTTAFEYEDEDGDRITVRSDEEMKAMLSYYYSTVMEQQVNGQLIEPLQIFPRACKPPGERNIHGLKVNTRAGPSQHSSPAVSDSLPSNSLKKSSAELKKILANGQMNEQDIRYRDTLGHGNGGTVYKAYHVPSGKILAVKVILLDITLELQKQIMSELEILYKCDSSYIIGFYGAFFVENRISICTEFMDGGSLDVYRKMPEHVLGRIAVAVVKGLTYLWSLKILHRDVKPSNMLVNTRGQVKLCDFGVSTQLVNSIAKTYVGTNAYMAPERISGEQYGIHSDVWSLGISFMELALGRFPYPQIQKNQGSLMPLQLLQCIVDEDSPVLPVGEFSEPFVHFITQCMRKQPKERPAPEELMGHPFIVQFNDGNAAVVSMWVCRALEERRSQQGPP

UniProt Q13557 = target: UniProt Q13557
UniProt Q13557, sequence (Q13557 whole entry): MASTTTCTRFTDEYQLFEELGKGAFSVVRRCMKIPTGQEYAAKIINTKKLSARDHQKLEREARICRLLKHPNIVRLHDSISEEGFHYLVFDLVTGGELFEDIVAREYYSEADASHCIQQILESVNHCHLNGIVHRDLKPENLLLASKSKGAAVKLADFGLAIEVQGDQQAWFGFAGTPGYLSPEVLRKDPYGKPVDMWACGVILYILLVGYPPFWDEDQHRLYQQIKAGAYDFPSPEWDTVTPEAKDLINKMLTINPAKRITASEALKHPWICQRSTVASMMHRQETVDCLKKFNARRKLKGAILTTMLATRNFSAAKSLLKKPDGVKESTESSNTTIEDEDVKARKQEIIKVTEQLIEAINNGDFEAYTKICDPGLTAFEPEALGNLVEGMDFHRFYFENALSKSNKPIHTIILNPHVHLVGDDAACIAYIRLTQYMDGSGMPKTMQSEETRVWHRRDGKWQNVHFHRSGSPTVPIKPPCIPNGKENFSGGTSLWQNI

UniProt Q16659 = target: UniProt Q16659
UniProt Q16659, sequence (Q16659 whole entry): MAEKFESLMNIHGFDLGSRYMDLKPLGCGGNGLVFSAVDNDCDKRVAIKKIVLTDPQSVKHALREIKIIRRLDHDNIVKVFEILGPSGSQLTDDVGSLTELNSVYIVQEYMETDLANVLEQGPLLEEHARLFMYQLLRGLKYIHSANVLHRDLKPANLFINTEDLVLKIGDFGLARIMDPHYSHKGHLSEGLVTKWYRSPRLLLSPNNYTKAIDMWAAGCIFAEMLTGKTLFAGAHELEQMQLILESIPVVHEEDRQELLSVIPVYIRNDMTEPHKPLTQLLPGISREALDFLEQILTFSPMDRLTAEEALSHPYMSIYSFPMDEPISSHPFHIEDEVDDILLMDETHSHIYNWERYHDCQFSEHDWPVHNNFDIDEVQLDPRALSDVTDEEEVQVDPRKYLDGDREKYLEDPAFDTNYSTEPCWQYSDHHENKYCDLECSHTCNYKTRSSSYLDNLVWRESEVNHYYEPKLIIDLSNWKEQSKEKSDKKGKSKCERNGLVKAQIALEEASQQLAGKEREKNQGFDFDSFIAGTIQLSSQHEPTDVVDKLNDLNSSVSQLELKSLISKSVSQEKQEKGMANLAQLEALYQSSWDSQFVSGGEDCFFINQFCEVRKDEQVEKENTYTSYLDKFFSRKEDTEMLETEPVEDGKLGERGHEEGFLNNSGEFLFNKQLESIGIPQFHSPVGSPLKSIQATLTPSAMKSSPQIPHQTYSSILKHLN

UniProt Q8TF76 = target: T3, UniProt Q8TF76
T3 sequence (whole entry): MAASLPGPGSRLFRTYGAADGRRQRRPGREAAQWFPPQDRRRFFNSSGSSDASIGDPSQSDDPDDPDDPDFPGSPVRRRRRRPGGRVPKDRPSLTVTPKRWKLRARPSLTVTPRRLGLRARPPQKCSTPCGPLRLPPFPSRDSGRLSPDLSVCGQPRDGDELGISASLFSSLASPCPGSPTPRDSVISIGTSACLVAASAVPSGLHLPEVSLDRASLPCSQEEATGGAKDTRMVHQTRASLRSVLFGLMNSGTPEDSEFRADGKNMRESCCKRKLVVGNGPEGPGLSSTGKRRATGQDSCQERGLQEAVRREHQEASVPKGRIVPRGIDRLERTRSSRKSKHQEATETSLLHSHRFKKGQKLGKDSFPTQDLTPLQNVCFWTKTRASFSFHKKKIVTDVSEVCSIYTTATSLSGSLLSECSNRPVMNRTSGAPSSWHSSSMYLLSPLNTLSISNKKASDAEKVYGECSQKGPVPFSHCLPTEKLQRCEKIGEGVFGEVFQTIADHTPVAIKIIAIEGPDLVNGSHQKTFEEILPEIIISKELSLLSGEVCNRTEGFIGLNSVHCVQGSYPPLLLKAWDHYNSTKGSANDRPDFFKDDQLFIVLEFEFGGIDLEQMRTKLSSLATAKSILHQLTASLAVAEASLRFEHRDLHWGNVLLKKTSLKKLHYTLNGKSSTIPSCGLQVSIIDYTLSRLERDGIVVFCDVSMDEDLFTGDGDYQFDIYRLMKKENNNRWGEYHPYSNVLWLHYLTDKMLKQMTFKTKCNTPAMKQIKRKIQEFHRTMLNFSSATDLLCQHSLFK

UniProt Q9H0K1 = target: UniProt Q9H0K1
UniProt Q9H0K1, sequence (Q9H0K1 whole entry, looked up): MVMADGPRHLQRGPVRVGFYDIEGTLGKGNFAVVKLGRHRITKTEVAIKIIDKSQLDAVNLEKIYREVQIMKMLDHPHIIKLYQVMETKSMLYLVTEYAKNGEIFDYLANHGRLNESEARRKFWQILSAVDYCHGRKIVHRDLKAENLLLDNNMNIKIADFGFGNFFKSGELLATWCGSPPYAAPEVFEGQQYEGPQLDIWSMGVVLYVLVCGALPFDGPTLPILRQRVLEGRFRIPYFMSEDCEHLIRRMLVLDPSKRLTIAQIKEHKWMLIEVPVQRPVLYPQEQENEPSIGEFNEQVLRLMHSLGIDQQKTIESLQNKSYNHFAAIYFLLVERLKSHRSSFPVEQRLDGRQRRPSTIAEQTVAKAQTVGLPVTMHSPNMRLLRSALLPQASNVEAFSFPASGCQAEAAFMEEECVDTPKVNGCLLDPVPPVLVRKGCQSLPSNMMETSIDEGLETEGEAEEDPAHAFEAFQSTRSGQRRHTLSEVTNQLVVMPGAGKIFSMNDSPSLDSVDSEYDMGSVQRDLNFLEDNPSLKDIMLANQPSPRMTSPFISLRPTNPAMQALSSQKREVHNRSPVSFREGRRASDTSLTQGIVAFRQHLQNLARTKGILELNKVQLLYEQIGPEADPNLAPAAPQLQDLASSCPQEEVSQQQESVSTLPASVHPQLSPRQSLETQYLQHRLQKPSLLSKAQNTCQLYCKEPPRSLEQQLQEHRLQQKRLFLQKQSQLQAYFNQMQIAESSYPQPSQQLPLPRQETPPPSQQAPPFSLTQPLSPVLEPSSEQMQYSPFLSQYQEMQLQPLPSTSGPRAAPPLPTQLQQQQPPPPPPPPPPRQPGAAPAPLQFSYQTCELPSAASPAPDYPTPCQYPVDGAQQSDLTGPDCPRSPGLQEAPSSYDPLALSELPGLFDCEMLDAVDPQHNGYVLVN

LIMK2, sequence (P53671 whole entry, looked up): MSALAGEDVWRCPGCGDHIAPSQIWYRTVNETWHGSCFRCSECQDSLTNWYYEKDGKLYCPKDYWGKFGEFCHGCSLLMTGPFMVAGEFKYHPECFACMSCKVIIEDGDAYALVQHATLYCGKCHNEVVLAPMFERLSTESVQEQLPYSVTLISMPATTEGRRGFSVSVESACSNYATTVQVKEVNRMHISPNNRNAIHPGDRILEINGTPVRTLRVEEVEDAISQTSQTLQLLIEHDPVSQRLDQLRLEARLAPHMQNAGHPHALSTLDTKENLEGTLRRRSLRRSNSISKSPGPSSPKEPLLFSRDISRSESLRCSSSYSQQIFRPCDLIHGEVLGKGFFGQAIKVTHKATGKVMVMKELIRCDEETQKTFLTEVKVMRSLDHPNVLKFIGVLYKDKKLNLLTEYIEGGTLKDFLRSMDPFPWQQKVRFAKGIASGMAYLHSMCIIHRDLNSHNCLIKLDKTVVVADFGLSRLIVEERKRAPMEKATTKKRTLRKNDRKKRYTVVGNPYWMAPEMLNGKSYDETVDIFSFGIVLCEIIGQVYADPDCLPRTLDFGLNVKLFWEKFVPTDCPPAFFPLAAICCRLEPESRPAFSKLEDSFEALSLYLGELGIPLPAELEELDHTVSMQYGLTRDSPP
HIPK1, sequence (Q86Z02 whole entry, looked up): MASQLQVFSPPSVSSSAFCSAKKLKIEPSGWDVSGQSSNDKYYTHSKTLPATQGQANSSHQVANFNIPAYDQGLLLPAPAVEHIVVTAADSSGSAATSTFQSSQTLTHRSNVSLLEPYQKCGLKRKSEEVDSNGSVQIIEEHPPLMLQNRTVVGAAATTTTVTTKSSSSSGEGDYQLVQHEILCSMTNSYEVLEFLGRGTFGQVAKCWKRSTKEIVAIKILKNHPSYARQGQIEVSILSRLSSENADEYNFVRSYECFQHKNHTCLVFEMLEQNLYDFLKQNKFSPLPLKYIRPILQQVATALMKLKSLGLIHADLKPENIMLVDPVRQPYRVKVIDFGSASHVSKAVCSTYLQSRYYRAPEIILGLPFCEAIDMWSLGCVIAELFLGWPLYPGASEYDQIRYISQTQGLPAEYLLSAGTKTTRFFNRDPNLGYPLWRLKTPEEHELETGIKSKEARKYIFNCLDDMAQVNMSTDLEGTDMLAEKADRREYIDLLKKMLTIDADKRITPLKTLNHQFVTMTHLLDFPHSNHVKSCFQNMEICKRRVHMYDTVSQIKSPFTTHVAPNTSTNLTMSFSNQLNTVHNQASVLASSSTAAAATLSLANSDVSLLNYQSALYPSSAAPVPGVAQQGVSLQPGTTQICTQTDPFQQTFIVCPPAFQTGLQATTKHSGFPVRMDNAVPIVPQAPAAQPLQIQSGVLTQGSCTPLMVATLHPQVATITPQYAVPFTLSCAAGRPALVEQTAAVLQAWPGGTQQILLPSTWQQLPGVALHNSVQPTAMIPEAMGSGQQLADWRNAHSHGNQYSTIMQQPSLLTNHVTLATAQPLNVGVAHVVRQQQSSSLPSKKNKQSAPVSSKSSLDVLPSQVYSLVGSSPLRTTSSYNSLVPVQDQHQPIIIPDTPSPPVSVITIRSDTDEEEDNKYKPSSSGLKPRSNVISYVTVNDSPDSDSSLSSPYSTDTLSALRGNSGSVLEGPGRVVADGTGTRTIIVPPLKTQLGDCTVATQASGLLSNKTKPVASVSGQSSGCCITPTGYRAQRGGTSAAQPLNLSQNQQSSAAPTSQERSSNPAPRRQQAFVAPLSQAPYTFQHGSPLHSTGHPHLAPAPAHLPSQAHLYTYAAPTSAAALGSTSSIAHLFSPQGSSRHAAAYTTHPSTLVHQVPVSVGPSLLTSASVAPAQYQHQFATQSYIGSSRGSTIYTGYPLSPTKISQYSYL

pIC50 (HIPK1): 4.77 | pIC50 (LIMK2): < 4.52 | pIC50 (NEK1): < 4.52 | pIC50 (UniProt Q13163): < 4.52 | pIC50 (UniProt Q13557): < 4.52 | pIC50 (UniProt Q16659): < 4.52 | pIC50 (UniProt Q8TF76): < 4.52 | pIC50 (UniProt Q9H0K1): < 4.52
SMILES: CCc1cnn2c(NCc3ccc[n+]([O-])c3)cc(N3CCCC[C@H]3CCO)nc12 [dinaciclib]
